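96-well plates; 48 h exposure; 5 concentrations. Endpoints by linear interpolation between flanking doses. Not reached: highest tested concentration assigned. GI50 marks 50% less growth.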 The source made the active and inactive calls. Cut-off read from the data, not from the text of the source: active = GI50 up to about 1.1 µM and inactive = higher.
Experiments:
Experiment in all cases: inhibition of tumour cell growth, NCI panel, 48 h
786-0 = tested on: 786-0
A498 = tested on: A498
A549 = tested on: A549
ACHN = tested on: ACHN
BT-549 = tested on: BT-549
CAKI-1 = tested on: CAKI-1
CCRF-CEM = tested on: CCRF-CEM
COLO 205 = tested on: COLO 205
DU-145 = tested on: DU-145
EKVX = tested on: EKVX
HCT-116 = tested on: HCT-116
HCT-15 = tested on: HCT-15
HOP-62 = tested on: HOP-62
HOP-92 = tested on: HOP-92
HT-29 = tested on: HT-29
Hs-578T = tested on: Hs-578T
IGROV-1 = tested on: IGROV-1
K562 = tested on: K562
KM12 = tested on: KM12
LOX IMVI = tested on: LOX IMVI
M14 = tested on: M14
MCF7 = tested on: MCF7
MDA-MB-231 = tested on: MDA-MB-231
MDA-MB-435 = tested on: MDA-MB-435
MDA-N = tested on: MDA-N
MOLT-4 = tested on: MOLT-4
Malme-3M = tested on: Malme-3M
NCI-H226 = tested on: NCI-H226
NCI-H23 = tested on: NCI-H23
NCI-H460 = tested on: NCI-H460
NCI-H522 = tested on: NCI-H522
NCI/ADR-RES = tested on: NCI/ADR-RES
OVCAR-3 = tested on: OVCAR-3
OVCAR-4 = tested on: OVCAR-4
OVCAR-5 = tested on: OVCAR-5
OVCAR-8 = tested on: OVCAR-8
PC-3 = tested on: PC-3
RPMI-8226 = tested on: RPMI-8226
RXF 393 = tested on: RXF 393
SF-268 = tested on: SF-268
SF-295 = tested on: SF-295
SF-539 = tested on: SF-539
SK-MEL-28 = tested on: SK-MEL-28
SK-MEL-2 = tested on: SK-MEL-2
SK-MEL-5 = tested on: SK-MEL-5
SK-OV-3 = tested on: SK-OV-3
SN12C = tested on: SN12C
SNB-19 = tested on: SNB-19
SNB-75 = tested on: SNB-75
SW-620 = tested on: SW-620
T47D = tested on: T47D
TK-10 = tested on: TK-10
U-251 = tested on: U-251
UACC-257 = tested on: UACC-257
UACC-62 = tested on: UACC-62
UO-31 = tested on: UO-31

In the case of `CC(=O)c1ccc(O)c(CN(C2CCCCC2)C2CCCCC2)c1O`, the GI50 (786-0) is reported as > 100 µM (inactive), the GI50 (A498) is reported as > 100 µM (inactive) and the GI50 (A549) is reported as > 100 µM (inactive). For the same molecule, the GI50 (ACHN) was > 100 µM (inactive), the GI50 (BT-549) was > 100 µM (inactive) and the GI50 (CAKI-1) was > 100 µM (inactive). For the same molecule, the GI50 (CCRF-CEM) was 0.0611 µM (active), the GI50 (COLO 205) was > 100 µM (inactive) and the GI50 (DU-145) was > 100 µM (inactive). The GI50 (EKVX) was > 100 µM (inactive), the GI50 (HCT-116) was > 100 µM (inactive) and the GI50 (HCT-15) was > 100 µM. For the same molecule, the GI50 (HOP-62) was > 100 µM (inactive), the GI50 (HOP-92) was > 100 µM (inactive) and the GI50 (HT-29) was > 100 µM (inactive). The GI50 (Hs-578T) was > 100 µM (inactive), the GI50 (IGROV-1) was > 100 µM (inactive) and the GI50 (K562) was > 100 µM (inactive). For the same molecule, the GI50 (KM12) was > 100 µM (inactive), the GI50 (LOX IMVI) was > 100 µM (inactive) and the GI50 (M14) was > 100 µM (inactive). The GI50 (MCF7) was > 100 µM (inactive), the GI50 (MDA-MB-231) was > 100 µM (inactive) and the GI50 (MDA-MB-435) was > 100 µM (inactive). For the same molecule, the GI50 (MDA-N) was > 100 µM (inactive), the GI50 (MOLT-4) was 61.4 µM (inactive) and the GI50 (Malme-3M) was > 100 µM (inactive). The GI50 (NCI-H226) was > 100 µM (inactive), the GI50 (NCI-H23) was > 100 µM (inactive) and the GI50 (NCI-H460) was > 100 µM (inactive). The GI50 (NCI-H522) was > 100 µM (inactive), the GI50 (NCI/ADR-RES) was > 100 µM (inactive) and the GI50 (OVCAR-3) was > 100 µM (inactive). For the same molecule, the GI50 (OVCAR-4) was > 100 µM (inactive), the GI50 (OVCAR-5) was > 100 µM (inactive) and the GI50 (OVCAR-8) was > 100 µM (inactive). The GI50 (PC-3) was > 100 µM (inactive), the GI50 (RPMI-8226) was > 100 µM (inactive) and the GI50 (RXF 393) was > 100 µM (inactive). For the same molecule, the GI50 (SF-268) was > 100 µM (inactive), the GI50 (SF-295) was > 100 µM (inactive) and the GI50 (SF-539) was > 100 µM (inactive). The GI50 (SK-MEL-28) was > 100 µM (inactive), the GI50 (SK-MEL-2) was > 100 µM (inactive) and the GI50 (SK-MEL-5) was > 100 µM (inactive). For the same molecule, the GI50 (SK-OV-3) was > 100 µM (inactive), the GI50 (SN12C) was > 100 µM (inactive) and the GI50 (SNB-19) was > 100 µM (inactive). The GI50 (SNB-75) was 2.19 µM (inactive), the GI50 (SW-620) was 81.1 µM (inactive) and the GI50 (T47D) was 21.6 µM (inactive). The GI50 (TK-10) was 74.3 µM (inactive), the GI50 (U-251) was > 100 µM (inactive) and the GI50 (UACC-257) was > 100 µM (inactive). For the same molecule, the GI50 (UACC-62) was > 100 µM (inactive) and the GI50 (UO-31) was 83.2 µM (inactive).
